Reference: article PMC6681301, “Multi-Target β-Protease Inhibitors from Andrographis paniculata: In Silico and In Vitro Studies” (Plants, 2019)

Tests used:
[1] = biological target: Acetylcholinesterase (Human) (Homo sapiens, UniProt P22303); experiment: In vitro AChE activity assay (Ellman); assay type: biochemical
Procedure: (§1) The inhibitory activities of both AChE and BChE were measured using the spectrophotometric method developed by Ellman. Acetylcholinesterase (Human), butyrylcholinesterase (Human) with […] (ACh), and […] (BCh) were used as their substrates, respectively. The enzyme activity was observed using Varioskan Flash (version 4.00.53), and the reading was observed using SkanIt Software (2.4.5 RE for Varioskan Flash). AChE and BChE solutions of ~0.15 unit/μL were prepared. The stock solution of AChE substrate (2.5 μM) and BChE substrate (2.5 μM) solution was prepared with DMSO, respectively.
(§2) The isolated compound inhibitor solutions were prepared using the same method as discussed in the BACE-1 assay. The sodium phosphate buffer (pH 8) (78 μL, 79 μL, 80 μL, 81 μL), 20 μL of the 5, 5′-dithiobis-(2-nitrobenzoic acid) (DTNB), AChE, and BChE enzyme solution (2 μL), substrate solution (20 μL), and inhibitor solutions (0 μL, 1 μL, 2 μL, 3 μL, 4 μL) were added to a 96-well plate. Each concentration was considered in triplicate. The plate was incubated for 15 min at 25 °C, and the readings were taken at 412 nm. The percentage inhibition was calculated using the formula percentage inhibition = (1 − C/I) × 100, where C and I were the enzyme activities without and with the test sample, respectively.

[2] = biological target: butyrylcholinesterase (Human) (Homo sapiens, UniProt P06276); experiment: In vitro BChE activity assay (Ellman); assay type: biochemical
Procedure: as §1, §2

[3] = biological target: T1, BACE-1 (Homo sapiens, UniProt P56817); experiment: In vitro BACE-1 activity assay (Sigma BACE-1 FRET assay kit); assay type: biochemical
T1 construct: purchased Sigma
Procedure: The assay was performed according to the manufacturer protocol supplied in BACE-1 activity (Sigma, BACE-1FRET assay kit). […] The BACE-1 substrate solution (50 μM), a BACE-1 enzyme solution (2 μL), and inhibitor solutions were prepared as per the manufacturer’s protocol.
BACE-1 substrate solution was prepared with 1 mg/mL (500 μM) by adding 0.5 ml of DMSO to BACE-1 substrate. 7-Methoxycumarin-4-acetyl-Asn670, Lue 671-Amyloid β/A4 Precursor Protein 770 Fragment 667-(2,4 dinitrophenyl), and Lys-Arg-Arg amide […] salt was used as a substrate for BACE-1. A BACE-1 enzyme solution of ~0.3 unit/μL was prepared. […] The isolated compounds were used for the isolated inhibitor solution preparation. The 5281780 solution (20 μM) with 1% DMSO was prepared after heating the solution at 55 °C for 5 min. The 188316 solution (20 μM) was prepared with 1% DMSO. The 5280443 solution was also prepared with concentration of 20 μM in 1% DMSO. These inhibitor solutions with variable concentrations (1 μM, 2 μM, 3 μM, 4 μM) were used for testing BACE-1 activities. The fluorescence assay buffer (78 μL, 79 μL, 80 μL, 81 μL), a BACE-1 enzyme solution (2 μL), the substrate solution (20 μL), and inhibitor solutions (0 μL, 1 μL, 2 μL, 3 μL, 4 μL) were added to a 96-well plate. Each concentration was considered in triplicate. […] The plate was incubated for 120 min at 37 °C, and the readings were taken. The readings were noted as S120. The percent inhibition was calculated using the formula, percent inhibition = [1 − (S120 − S0)/(C120 − C0)] × 100 [139].

[4] = biological target: glycogen synthase kinase-3b; settings: read-out: IC50, inhibition of glycogen synthase kinase-3b; cited from earlier work
[5] = system: AChE; set-up: method as in PMID 29850593; settings: cited from earlier work
[6] = system: BChE; set-up: method as in PMID 29850593; settings: cited from earlier work
[7] = system: AChE (electric eel); set-up: method as in PMID 23529036; settings: cited from earlier work
[8] = system: BChE (equine serum); set-up: method as in PMID 23529036; settings: cited from earlier work

Chain of Acetylcholinesterase (Human) (P22303 32-614): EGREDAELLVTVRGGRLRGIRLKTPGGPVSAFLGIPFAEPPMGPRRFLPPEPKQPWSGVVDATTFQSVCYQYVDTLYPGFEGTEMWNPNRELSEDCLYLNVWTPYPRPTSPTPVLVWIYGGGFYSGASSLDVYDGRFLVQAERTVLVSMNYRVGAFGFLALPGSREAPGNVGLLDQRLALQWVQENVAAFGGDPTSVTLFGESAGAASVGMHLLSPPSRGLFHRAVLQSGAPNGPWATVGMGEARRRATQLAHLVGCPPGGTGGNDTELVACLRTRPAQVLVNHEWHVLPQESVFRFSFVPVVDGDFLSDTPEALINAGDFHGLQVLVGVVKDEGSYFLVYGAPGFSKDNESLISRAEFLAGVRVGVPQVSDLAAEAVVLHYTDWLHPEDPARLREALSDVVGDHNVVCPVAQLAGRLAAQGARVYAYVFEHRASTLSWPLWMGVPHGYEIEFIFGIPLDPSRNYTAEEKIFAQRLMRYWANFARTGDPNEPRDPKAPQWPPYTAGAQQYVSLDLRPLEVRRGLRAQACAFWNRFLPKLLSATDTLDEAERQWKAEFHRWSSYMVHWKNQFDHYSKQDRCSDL
T1 sequence (P56817 46-501): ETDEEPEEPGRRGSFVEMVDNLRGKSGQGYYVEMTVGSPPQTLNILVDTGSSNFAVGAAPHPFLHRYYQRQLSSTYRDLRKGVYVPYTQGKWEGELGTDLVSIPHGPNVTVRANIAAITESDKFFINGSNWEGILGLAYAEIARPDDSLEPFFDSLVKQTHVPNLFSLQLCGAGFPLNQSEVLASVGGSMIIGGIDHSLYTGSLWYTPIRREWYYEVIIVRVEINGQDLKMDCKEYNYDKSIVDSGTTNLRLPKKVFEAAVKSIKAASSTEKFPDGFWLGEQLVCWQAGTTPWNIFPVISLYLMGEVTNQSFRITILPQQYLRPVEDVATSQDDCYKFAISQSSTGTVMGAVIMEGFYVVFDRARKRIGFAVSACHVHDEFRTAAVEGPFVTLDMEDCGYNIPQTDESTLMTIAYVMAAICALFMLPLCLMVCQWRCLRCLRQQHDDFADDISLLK
Chain of butyrylcholinesterase (Human) (P06276 29-602): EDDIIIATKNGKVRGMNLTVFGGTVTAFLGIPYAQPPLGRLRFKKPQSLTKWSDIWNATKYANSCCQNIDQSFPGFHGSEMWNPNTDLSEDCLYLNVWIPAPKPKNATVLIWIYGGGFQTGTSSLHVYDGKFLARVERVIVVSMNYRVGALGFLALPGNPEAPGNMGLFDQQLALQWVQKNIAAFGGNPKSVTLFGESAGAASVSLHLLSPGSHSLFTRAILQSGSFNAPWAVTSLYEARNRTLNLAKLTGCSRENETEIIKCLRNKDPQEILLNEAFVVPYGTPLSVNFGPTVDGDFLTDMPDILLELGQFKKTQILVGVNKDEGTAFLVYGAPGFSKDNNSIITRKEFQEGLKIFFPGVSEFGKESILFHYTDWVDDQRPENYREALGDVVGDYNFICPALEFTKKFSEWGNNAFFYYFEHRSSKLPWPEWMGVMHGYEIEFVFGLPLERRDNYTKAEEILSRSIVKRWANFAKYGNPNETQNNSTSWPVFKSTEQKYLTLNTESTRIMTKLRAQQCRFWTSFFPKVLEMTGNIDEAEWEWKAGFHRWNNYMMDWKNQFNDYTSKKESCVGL

Compound	IC50 [1] [nM]	IC50 [2] [nM]	IC50 [3] [nM]	further results
O=c1cc(-c2ccc(O)cc2)oc2cc(O)cc(O)c12 [Compound 5280443, apigenin]	3420 ± 20	1970 ± 10	3790 ± 260	IC50 [4]: 1900 nM
COc1cc2c(cc1O)C[C@H]1c3c(cc(O)c(OC)c3-2)CCN1C [Boldine]				IC50 [5]: 372000 nM; IC50 [6]: 321000 nM
O=C(C=Cc1ccc(O)c(O)c1)OC1CC(O)(C(=O)O)CC(O)C1OC(=O)C=Cc1ccc(O)c(O)c1 (centres unmarked) [Compound 5281780, 3,4-di-o-caffeoylquinic acid]	2140 ± 40		3310 ± 120	
COc1cc(O)c2c(=O)cc(-c3ccccc3)oc2c1OC [Compound 188316, 7-o-methylwogonin]	2460 ± 30	1460 ± 20	2910 ± 40	potency relative to eserine ([1]; comparison of IC50 values (Table 4)): ~1.5 fold
